Results published in patent publication US8802597B2, “Herbicidal pyrimidines” (E I du Pont de Nemours and Company, priority 2003, dated 2014).
Like-named read-outs stand apart in the source and are kept apart here.

Columns and labels:
Format in all cases: in vivo
corn (Zea mays) = assay: Test C pre/postemergence; details: Zea mays; for Corn plant response rating (crop injury, 0 = no effect, 100 = complete kill) at 31 g/ha: 31 g ai/ha; for Corn plant response rating (crop injury, 0 = no effect, 100 = complete kill) at 62 g/ha: 62 g ai/ha; for Corn plant response rating (crop injury, 0 = no effect, 100 = complete kill) at 125 g/ha: 125 g ai/ha; for Corn plant response rating (crop injury, 0 = no effect, 100 = complete kill) at 250 g/ha: 250 g ai/ha
Text: (§1) Seeds or nutlets of plant species selected from bermudagrass (Cynodon dactylon), Surinam grass (Brachiaria decumbens), cocklebur (Xanthium strumarium), corn (Zea mays), crabgrass (Digitaria sanguinalis), woolly cupgrass (Eriochloa villosa), giant foxtail (Setaria faberii), goosegrass (Eleusine indica), johnsongrass (Sorghum halepense), kochia (Kochia scoparia), lambsquarters (Chenopodium album), morningglory (Ipomoea coccinea), eastern black nightshade (Solanum ptycanthum), yellow nutsedge (Cyperus esculentus), pigweed (Amaranthus retroflexus), common ragweed (Ambrosia elatior), soybean (Glycine max), common (oilseed) sunflower (Helianthus annuus), and velvetleaf (Abutilon theophrasti) were planted and treated preemergence with test chemicals formulated in a non-phytotoxic solvent mixture which included a surfactant.
(§2) At the same time, plants selected from these crop and weed species and also winter barley (Hordeum vulgare), blackgrass (Alopecurus myosuroides), canarygrass (Phalaris minor), chickweed (Stellaria media), downy brome (Bromus tectorum), green foxtail (Setaria viridis), Italian ryegrass (Lolium multiflorum), wheat (Triticum aestivum), wild oat (Avena fatua) and windgrass (Apera spica-venti) were treated with postemergence applications of some of the test chemicals formulated in the same manner. Plants ranged in height from 2 to 18 cm (1- to 4-leaf stage) for postemergence treatments. Plant species in the flooded paddy test consisted of rice (Oryza sativa), umbrella sedge (Cyperus difformis), duck salad (Heteranthera limosa) and barnyardgrass (Echinochloa crus-galli) grown to the 2-leaf stage for testing. Treated plants and controls were maintained in a greenhouse for 12 to 14 days, after which time all species were compared to controls and visually evaluated. Plant response ratings, summarized in Table C, are based on a scale of 0 to 100 where 0 is no effect and 100 is complete control. A dash (-) response means no test result.

[1] = tested on: lambsquarters (Chenopodium album); assay: Test C pre/postemergence; details: Chenopodium album; for pest or weed control at 31 g/ha: 31 g ai/ha; for pest or weed control at 62 g/ha: 62 g ai/ha; for pest or weed control at 125 g/ha: 125 g ai/ha; for pest or weed control at 250 g/ha: 250 g ai/ha
Text: as §1, §2

[2] = tested on: common ragweed (Ambrosia elatior); assay: Test C pre/postemergence; details: Ambrosia artemisiifolia; for pest or weed control at 31 g/ha: 31 g ai/ha; for pest or weed control at 62 g/ha: 62 g ai/ha; for pest or weed control at 125 g/ha: 125 g ai/ha; for pest or weed control at 250 g/ha: 250 g ai/ha
Text: as §1, §2

[3] = tested on: cocklebur (Xanthium strumarium); assay: Test C pre/postemergence; details: Xanthium strumarium; for pest or weed control at 31 g/ha: 31 g ai/ha; for pest or weed control at 62 g/ha: 62 g ai/ha; for pest or weed control at 125 g/ha: 125 g ai/ha; for pest or weed control at 250 g/ha: 250 g ai/ha
Text: as §1, §2

[4] = tested on: chickweed (Stellaria media); assay: Test C postemergence; details: Stellaria media, post-emergence; for pest or weed control at 31 g/ha: 31 g ai/ha, read-out: Plant response rating (scale of 0 to 100), Chickweed; for pest or weed control at 62 g/ha: 62 g ai/ha; for pest or weed control at 62 g/ha / pest or weed control at 125 g/ha: scale 0 to 100 (0 no effect, 100 complete control), read-out: Chickweed plant response rating; for pest or weed control at 125 g/ha: 125 g ai/ha; for pest or weed control at 250 g/ha: 250 g ai/ha, scale 0 to 100, read-out: Plant response rating, Chickweed
Text: as §1, §2

[5] = post-emergence, Postemergence, read-out: Plant response rating (scale of 0 to 100), Corn
[6] = post-emergence, Postemergence, scale 0 to 100 (0 no effect, 100 complete control), read-out: Corn plant response rating
[7] = post-emergence, Postemergence, scale 0 to 100
[8] = pre-emergence, Preemergence, scale 0 to 100, 0 no effect, 100 complete control, read-out: Plant response rating, Corn
[9] = post-emergence, Postemergence, read-out: Plant response rating (scale of 0 to 100), Lambsquarters
[10] = post-emergence, Postemergence, scale 0 to 100 (0 no effect, 100 complete control), read-out: Lambsquarters plant response rating
[11] = post-emergence, Postemergence, scale 0 to 100, read-out: Plant response rating, Lambsquarters
[12] = pre-emergence, Preemergence, scale 0 to 100, 0 no effect, 100 complete control, read-out: Plant response rating, Lambsquarters
[13] = pre-emergence, Preemergence, scale 0 to 100, read-out: Plant response rating, Lambsquarters
[14] = post-emergence, Postemergence, read-out: Plant response rating (scale of 0 to 100), Ragweed
[15] = post-emergence, Postemergence, scale 0 to 100 (0 no effect, 100 complete control), read-out: Ragweed plant response rating
[16] = post-emergence, Postemergence, scale 0 to 100, read-out: Plant response rating, Ragweed
[17] = pre-emergence, Preemergence, scale 0 to 100, 0 no effect, 100 complete control, read-out: Plant response rating, Ragweed
[18] = pre-emergence, Preemergence, scale 0 to 100, read-out: Plant response rating, Ragweed
[19] = post-emergence, Postemergence, read-out: Plant response rating (scale of 0 to 100), Cocklebur
[20] = post-emergence, Postemergence, scale 0 to 100 (0 no effect, 100 complete control), read-out: Cocklebur plant response rating
[21] = post-emergence, Postemergence, scale 0 to 100, read-out: Plant response rating, Cocklebur
[22] = pre-emergence, Preemergence, scale 0 to 100, 0 no effect, 100 complete control, read-out: Plant response rating, Cocklebur
[23] = pre-emergence, Preemergence, scale 0 to 100, read-out: Plant response rating, Cocklebur

SMILES	Corn plant response rating (crop injury, 0 = no effect, 100 = complete kill) at 31 g/ha (corn (Zea mays); [5]) [%]	Corn plant response rating (crop injury, 0 = no effect, 100 = complete kill) at 62 g/ha (corn (Zea mays); [6]) [%]	Corn plant response rating (crop injury, 0 = no effect, 100 = complete kill) at 125 g/ha (corn (Zea mays); [6]) [%]	Corn plant response rating (crop injury, 0 = no effect, 100 = complete kill) at 250 g/ha (corn (Zea mays); [7]) [%]	pest or weed control at 31 g/ha [1, 9] [%]	pest or weed control at 62 g/ha [1, 10] [%]	pest or weed control at 125 g/ha [1, 10] [%]	pest or weed control at 250 g/ha [1, 11] [%]	pest or weed control at 31 g/ha [2, 14] [%]	pest or weed control at 62 g/ha [2, 15] [%]	pest or weed control at 125 g/ha [2, 15] [%]	pest or weed control at 250 g/ha [2, 16] [%]	pest or weed control at 31 g/ha [3, 19] [%]	pest or weed control at 62 g/ha [3, 20] [%]	pest or weed control at 125 g/ha [3, 20] [%]	pest or weed control at 250 g/ha [3, 21] [%]	pest or weed control at 31 g/ha [4] [%]	pest or weed control at 62 g/ha [4] [%]	pest or weed control at 125 g/ha [4] [%]	pest or weed control at 250 g/ha [4] [%]	further results
CCOC(=O)c1nc(C2CC2)nc(N)c1F [Compound 30]	0	0	0	50	50	60	80	90	60	80	85	90	90	95	100	100	40	50	65	85	Corn plant response rating (crop injury, 0 = no effect, 100 = complete kill) at 31 g/ha (corn (Zea mays); [8]): 0%; Corn plant response rating (crop injury, 0 = no effect, 100 = complete kill) at 62 g/ha (corn (Zea mays); [8]): 0%; Corn plant response rating (crop injury, 0 = no effect, 100 = complete kill) at 125 g/ha (corn (Zea mays); pre-emergence, Preemergence, scale 0 to 100, read-out: Plant response rating, Corn): 0%; Corn plant response rating (crop injury, 0 = no effect, 100 = complete kill) at 250 g/ha (corn (Zea mays); pre-emergence, Preemergence, scale 0 to 100): 0%; pest or weed control at 31 g/ha [1, 12]: 0%; pest or weed control at 62 g/ha [1, 12]: 80%; pest or weed control at 125 g/ha [1, 13]: 85%; pest or weed control at 250 g/ha [1, 13]: 90%; pest or weed control at 31 g/ha [2, 17]: 30%; pest or weed control at 62 g/ha [2, 17]: 85%; pest or weed control at 125 g/ha [2, 18]: 90%; pest or weed control at 250 g/ha [2, 18]: 100%; pest or weed control at 31 g/ha [3, 22]: 0%; pest or weed control at 62 g/ha [3, 22]: 60%; pest or weed control at 125 g/ha [3, 23]: 85%; pest or weed control at 250 g/ha [3, 23]: 90%
CCOC(=O)c1nc(C2CC2)nc(NN)c1Br [Compound 42]	0	0	0	0	10	20	20	25	0	10	40	40	0	0	5	20	0	0	0	10	
